Laboratory results from ChEMBL document CHEMBL1142317, “In vitro antitumor activity of the water soluble copper(I) complexes bearing the tris(hydroxymethyl)phosphine ligand” (J Med Chem, 2008).

Assays:
Type in all cases: functional, cell-based
[1] = test system: HeLa; assay: Cytotoxicity against human HeLa cells after 48 hrs by MTT assay
[2] = test system: Caco-2; assay: Cytotoxicity against human CaCo2 cells after 48 hrs by MTT assay; settings: Caco-2, 48 h
[3] = test system: HCT-15; assay: Cytotoxicity against human HCT15 cells after 48 hrs by MTT assay; settings: HCT-15, 48 h
[4] = test system: HL-60; assay: Cytotoxicity against human HL60 cells after 48 hrs by MTT assay; settings: HL-60, 48 h
[5] = test system: HepG2; assay: Cytotoxicity against human HepG2 cells after 48 hrs by MTT assay; settings: HepG2, 48 h
[6] = test system: Daudi; assay: Cytotoxicity against human Daudi cells after 48 hrs by MTT assay
[7] = test system: A-375; assay: Cytotoxicity against human A375 cells after 48 hrs by MTT assay; settings: A-375, 48 h
[8] = test system: MCF7; assay: Cytotoxicity against human MCF7 cells after 48 hrs by MTT assay; settings: MCF7, 48 h
[9] = test system: A549; assay: Cytotoxicity against human A549 cells after 48 hrs by MTT assay; settings: A549, 48 h
[10] = test system: LoVo; assay: Cytotoxicity against human LoVo cells after 48 hrs by MTT assay
[11] = test system: LoVo; assay: Cytotoxicity against human multidrug resistant LoVo cells after 48 hrs by MTT assay

Structure (SMILES) | IC50 [1] [µM] | IC50 [2] [µM] | IC50 [3] [µM] | IC50 [4] [µM] | IC50 [5] [µM] | IC50 [6] [µM] | IC50 [7] [µM] | IC50 [8] [µM] | IC50 [9] [µM] | IC50 [10] [µM] | IC50 [11] [µM]
OCP(CO)CCP(CO)CO | > 100 | 84.1 | 91.7 | 83.7 | 71.7 | > 100 | 73.2 | > 100 | > 100 | – | –
COc1cccc2c1C(=O)c1c(O)c3c(c(O)c1C2=O)C[C@@](O)(C(=O)CO)C[C@@H]3O[C@H]1C[C@H](N)[C@H](O)[C@H](C)O1 [DOXORUBICIN] | – | – | – | – | – | – | – | – | – | 1.46 | 44.9
OCP(CO)CO [TRIS(HYDROXYMETHYL)PHOSPHINE] | > 100 | > 100 | > 100 | 68.6 | 98.7 | > 100 | 88.7 | 64.2 | 72.9 | – | –
